Each block holds one molecule with its values, some of them ahead of it.
Columns and labels:
Leucine aminopeptidase = biological target: T1, Leucine aminopeptidase (Plasmodium falciparum 3D7, UniProt Q8IL11); test: Inhibition of Plasmodium falciparum LAP
T1 sequence (Q8IL11 whole entry): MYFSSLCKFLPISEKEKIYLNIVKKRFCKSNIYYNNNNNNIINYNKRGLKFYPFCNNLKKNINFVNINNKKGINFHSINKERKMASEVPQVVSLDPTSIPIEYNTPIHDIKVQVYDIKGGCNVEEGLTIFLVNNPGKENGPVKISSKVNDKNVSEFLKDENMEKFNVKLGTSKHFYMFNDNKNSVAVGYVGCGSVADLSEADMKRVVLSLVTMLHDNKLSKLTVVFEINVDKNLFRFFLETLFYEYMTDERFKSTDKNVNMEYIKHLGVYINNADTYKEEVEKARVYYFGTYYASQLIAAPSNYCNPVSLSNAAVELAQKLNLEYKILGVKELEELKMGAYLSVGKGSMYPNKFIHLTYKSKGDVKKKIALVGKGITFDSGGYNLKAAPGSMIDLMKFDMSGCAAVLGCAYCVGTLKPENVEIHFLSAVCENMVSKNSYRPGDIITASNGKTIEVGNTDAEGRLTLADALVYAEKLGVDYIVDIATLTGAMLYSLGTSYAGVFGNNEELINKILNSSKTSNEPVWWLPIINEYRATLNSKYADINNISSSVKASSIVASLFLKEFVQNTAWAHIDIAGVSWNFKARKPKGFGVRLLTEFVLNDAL

[1] = Inhibition of Neisseria meningitidis APN
[2] = biological target: T2, Leukotriene A-4 hydrolase (Homo sapiens, UniProt P09960); test: Inhibition of human recombinant LTA4H by L-(4-benzoyl)phenylalanyl-beta-naphthylamide fluorigenic substrate by fluorescence based assay
T2 sequence (P09960 whole entry): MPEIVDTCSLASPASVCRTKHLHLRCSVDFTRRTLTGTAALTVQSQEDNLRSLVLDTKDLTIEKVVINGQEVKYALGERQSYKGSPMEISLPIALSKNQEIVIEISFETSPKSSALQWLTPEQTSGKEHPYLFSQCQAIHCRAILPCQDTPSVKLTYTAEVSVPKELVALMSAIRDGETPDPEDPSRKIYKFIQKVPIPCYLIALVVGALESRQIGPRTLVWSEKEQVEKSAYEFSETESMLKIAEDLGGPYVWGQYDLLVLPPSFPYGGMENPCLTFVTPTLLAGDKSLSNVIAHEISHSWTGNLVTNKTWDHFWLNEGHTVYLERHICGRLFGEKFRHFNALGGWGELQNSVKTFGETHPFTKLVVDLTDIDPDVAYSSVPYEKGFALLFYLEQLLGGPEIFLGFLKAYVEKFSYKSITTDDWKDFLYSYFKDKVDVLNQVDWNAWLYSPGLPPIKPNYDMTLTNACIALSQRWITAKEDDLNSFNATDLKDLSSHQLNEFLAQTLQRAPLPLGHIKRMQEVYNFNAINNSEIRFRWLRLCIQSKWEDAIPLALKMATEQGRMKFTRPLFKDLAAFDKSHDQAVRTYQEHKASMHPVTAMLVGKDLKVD

[3] = biological target: T3, Macrophage metalloelastase (Homo sapiens, UniProt P39900); test: Inhibition of human MMP12
[4] = Inhibition of Plasmodium falciparum APN
[5] = Inhibition of Helicobacter pylori Csd4
Neutrophil collagenase = Neutrophil collagenase (Homo sapiens, UniProt P22894); test: Inhibition of human MMP8 by photoaffinity probe based assay
[6] = biological target: Matrix metalloproteinase-9 (Homo sapiens, UniProt P14780); test: Inhibition of human MMP9 by photoaffinity probe based assay
Collagenase 3 = Collagenase 3 (Homo sapiens, UniProt P45452); test: Inhibition of human MMP13 by photoaffinity probe based assay
[7] = biological target: T3, Macrophage metalloelastase; test: Inhibition of human MMP12 by photoaffinity probe based assay
[8] = biological target: 72 kDa type IV collagenase (Homo sapiens, UniProt P08253); test: Inhibition of human MMP2 by photoaffinity probe based assay
Sequence of 72 kDa type IV collagenase (P08253 whole entry): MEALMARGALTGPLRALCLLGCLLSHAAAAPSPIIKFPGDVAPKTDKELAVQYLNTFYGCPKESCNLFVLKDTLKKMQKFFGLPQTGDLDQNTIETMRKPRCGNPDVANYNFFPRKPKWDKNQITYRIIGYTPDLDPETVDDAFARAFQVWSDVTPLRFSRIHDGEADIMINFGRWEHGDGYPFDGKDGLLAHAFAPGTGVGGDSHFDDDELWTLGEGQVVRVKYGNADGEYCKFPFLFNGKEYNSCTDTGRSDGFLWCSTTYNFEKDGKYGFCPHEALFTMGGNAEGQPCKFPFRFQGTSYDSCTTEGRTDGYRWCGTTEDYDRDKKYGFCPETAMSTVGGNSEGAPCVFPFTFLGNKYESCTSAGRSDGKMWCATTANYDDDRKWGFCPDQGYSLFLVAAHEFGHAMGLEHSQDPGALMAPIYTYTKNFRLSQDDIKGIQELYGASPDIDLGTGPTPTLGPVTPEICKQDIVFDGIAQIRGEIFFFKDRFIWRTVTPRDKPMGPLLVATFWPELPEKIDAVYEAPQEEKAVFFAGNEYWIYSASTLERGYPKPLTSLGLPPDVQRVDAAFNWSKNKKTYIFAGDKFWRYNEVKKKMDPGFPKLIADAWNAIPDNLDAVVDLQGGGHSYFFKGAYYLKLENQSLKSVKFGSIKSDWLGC

T3 sequence (P39900 whole entry): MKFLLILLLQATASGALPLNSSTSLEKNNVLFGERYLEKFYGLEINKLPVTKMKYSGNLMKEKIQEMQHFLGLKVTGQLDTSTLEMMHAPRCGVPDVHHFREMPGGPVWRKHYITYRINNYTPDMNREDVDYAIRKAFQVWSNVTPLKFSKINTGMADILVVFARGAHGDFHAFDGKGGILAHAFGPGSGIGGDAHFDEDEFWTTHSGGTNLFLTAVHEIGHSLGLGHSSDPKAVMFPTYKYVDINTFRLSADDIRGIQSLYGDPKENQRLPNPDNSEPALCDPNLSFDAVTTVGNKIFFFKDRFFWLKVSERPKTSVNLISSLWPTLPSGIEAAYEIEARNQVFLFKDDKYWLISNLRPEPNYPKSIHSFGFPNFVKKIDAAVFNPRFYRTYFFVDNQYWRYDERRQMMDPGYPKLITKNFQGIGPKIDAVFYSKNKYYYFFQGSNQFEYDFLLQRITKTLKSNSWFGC
Sequence of Matrix metalloproteinase-9 (P14780 whole entry): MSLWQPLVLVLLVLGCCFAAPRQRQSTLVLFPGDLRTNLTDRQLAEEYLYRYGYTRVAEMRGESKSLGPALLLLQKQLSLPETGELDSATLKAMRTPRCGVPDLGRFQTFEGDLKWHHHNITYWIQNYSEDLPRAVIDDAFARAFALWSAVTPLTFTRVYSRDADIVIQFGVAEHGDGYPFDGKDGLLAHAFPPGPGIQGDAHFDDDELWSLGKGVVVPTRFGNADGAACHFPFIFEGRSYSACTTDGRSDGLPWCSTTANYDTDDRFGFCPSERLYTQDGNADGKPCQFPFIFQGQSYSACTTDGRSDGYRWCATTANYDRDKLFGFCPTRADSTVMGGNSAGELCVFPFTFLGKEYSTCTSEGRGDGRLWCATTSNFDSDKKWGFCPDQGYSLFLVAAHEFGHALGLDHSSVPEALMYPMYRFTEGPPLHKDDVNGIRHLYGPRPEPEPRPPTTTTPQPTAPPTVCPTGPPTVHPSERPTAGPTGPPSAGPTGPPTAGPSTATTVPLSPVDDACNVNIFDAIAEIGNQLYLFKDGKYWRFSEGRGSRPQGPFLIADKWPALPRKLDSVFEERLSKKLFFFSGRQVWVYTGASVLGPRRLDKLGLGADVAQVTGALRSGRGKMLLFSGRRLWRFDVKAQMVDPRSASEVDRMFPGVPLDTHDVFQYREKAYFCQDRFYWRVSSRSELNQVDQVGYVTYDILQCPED
Sequence of Neutrophil collagenase (P22894 whole entry): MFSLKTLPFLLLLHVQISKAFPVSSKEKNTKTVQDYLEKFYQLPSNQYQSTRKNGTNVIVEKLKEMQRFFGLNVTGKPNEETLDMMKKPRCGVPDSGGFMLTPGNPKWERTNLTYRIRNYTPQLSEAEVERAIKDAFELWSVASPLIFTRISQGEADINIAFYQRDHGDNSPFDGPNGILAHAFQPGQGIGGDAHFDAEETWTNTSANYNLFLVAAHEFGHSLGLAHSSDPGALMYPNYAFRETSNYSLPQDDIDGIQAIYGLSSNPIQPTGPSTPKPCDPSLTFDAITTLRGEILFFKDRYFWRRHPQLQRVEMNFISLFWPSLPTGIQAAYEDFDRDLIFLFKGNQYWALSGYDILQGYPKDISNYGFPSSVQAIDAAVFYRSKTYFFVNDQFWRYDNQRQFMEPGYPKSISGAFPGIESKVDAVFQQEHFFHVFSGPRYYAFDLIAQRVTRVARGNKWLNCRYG

Compound: NC(CCc1ccccc1)P(=O)(O)CC(Cc1ccccc1)C(=O)O (stereo not given)
Ki (Leucine aminopeptidase): 13 nM
Ki [1]: 302 nM

Compound: C[C@H](NC(=O)C1(CP(=O)(O)[C@H](C)N)CCCC1)C(=O)O
Ki [2]: 4.6 nM

Compound: CC(=O)N1CCC(CP(=O)(O)[C@H](C)N)(C(=O)N[C@@H](C)C(=O)O)CC1
Ki [2]: 5.3 nM

Compound: NC(CCc1ccccc1)P(=O)(O)CC(Cc1ccc(O)cc1)C(=O)O (stereo not given)
Ki (Leucine aminopeptidase): 10 nM
Ki [4]: 232 nM
Ki [1]: 54 nM

Compound: CC(=O)N[C@H](CCP(=O)(O)CC(CCC[C@@H](N)C(=O)O)C(=O)O)C(=O)O (stereo not given in full)
Ki [5]: 1500 nM

Continued, values first:

Ki [3]: 0.9 nM
Compound: CC[N+]1=C(/C=C/C=C/C=C2/N(CCCCCC(=O)NCCCOCCOCCOCCCNC(=O)[C@H](CCC(=O)O)NC(=O)[C@H](C)NC(=O)[C@H](Cc3cc(-c4ccc(-c5cccc(Cl)c5)cc4)no3)CP(=O)(O)c3ccc(Br)cc3)c3ccc4c(S(=O)(=O)O)cc(S(=O)(=O)O)cc4c3C2(C)C)C(C)(C)c2c1ccc1c(S(=O)(=O)[O-])cc(S(=O)(=O)O)cc21

Ki [3]: 0.26 nM
Compound: C[C@H](NC(=O)[C@H](Cc1cc(-c2ccc(-c3cccc(Cl)c3)cc2)no1)CP(=O)(O)c1ccc(Br)cc1)C(=O)N[C@@H](CCC(=O)O)C(N)=O

Ki (Neutrophil collagenase): 0.6 nM
Ki [6]: 2.6 nM
Ki (Collagenase 3): 1.6 nM
Ki [7]: 1 nM
Ki [8]: 0.5 nM
Compound: [3H]CC([3H])C(=O)NCCCOCCOCCOCCCNC(=O)[C@H](CO)NC(=O)[C@H](CC)NC(=O)[C@H](Cc1cc(-c2ccc(C3(C(F)(F)F)N=N3)cc2)no1)CP(=O)(O)c1ccccc1 (stereo not given in full)
